Measurements: patent US20230406885A1, “CYCLIC PEPTIDES FOR TRAPPING INTERLEUKIN-1 BETA” (MERCK SHARP & DOHME LLC, priority 2022, published 2023)
Where a SMILES comes first, the peptide text is derived from it. [ ]: non-standard residue; d: D form. The star is where a group is joined. Bip(4'-COOH) = N[C@@H](Cc1ccc(-c2ccc(C(=O)O)cc2)cc1)C(=O)O; 1Nal(3S-Me) = C[C@@H](c1cccc2ccccc12)[C@H](N)C(=O)O; hPhe(4-CF3) = N[C@@H](CCc1ccc(C(F)(F)F)cc1)C(=O)O; Ala(pyrimidin-5-yl) = N[C@@H](Cc1cncnc1)C(=O)O; Phe(4-COOH) = N[C@@H](Cc1ccc(C(=O)O)cc1)C(=O)O; Trp(7-aza) = N[C@@H](Cc1c[nH]c2ncccc12)C(=O)O; h3Pal(5-CN) = N#Cc1cncc(CC[C@H](N)C(=O)O)c1; Pro(4R-NH2) = N[C@H]1CN[C@H](C(=O)O)C1; AEF = NCCOc1ccc(C[C@H](N)C(=O)O)cc1; Ethyl(2-morpholino) = C1CN(CC*)CCO1; hTyr = N[C@@H](CCc1ccc(O)cc1)C(=O)O; hPhe = N[C@@H](CCc1ccccc1)C(=O)O; dDab = NCC[C@@H](N)C(=O)O; dNMeA = CN[C@H](C)C(=O)O; Dab = NCC[C@H](N)C(=O)O; Dap = NC[C@H](N)C(=O)O; Aib = CC(C)(N)C(=O)O

Molecular target: T1, Recombinant human IL-1β (Homo sapiens, UniProt P01584)
T1 construct: purchased BioLegend 579404
T1 sequence (P01584 117-269): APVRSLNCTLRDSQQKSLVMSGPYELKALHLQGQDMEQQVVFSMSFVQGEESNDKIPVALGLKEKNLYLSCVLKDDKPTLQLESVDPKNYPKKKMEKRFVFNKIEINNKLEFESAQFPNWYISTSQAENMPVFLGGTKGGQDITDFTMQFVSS
Test: IL-6 assay in MRC5 cells: inhibition of IL-1β induced IL-6 secretion (AlphaLISA)
Format: cell-based
Settings: inhibition of IL-1β induced IL-6 secretion in MRC5 cells; IL-1β pre-incubated 1 hour with compound; read-out: MRC5 IC50
Method in brief: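 IL-1β at 2×EC80 in seeding medium (EMEM, 0.025% BSA) preincubated 1 h at ambient temperature with compound, then 3000 MRC5 cells/well added and incubated overnight at 37 °C, 5% CO2. IL-6 in conditioned medium quantified by AlphaLISA; IC50 from 4-parameter logistic fit.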

Row | SMILES | IC50 [nM]
1 | CC(=O)NCCOc1ccc(C[C@@H]2NC(=O)[C@H](CCc3ccc(O)cc3)NC(=O)[C@@H](C)NC(=O)CNC(=O)[C@H](CCCCN)NC(=O)[C@H](Cc3ccc(-c4ccc(C(=O)O)cc4)cc3)NC(=O)CNC(=O)[C@@H](C)N(C)C(=O)[C@H](CC(=O)O)NC(=O)[C@H]([C@@H](C)c3cccc4ccccc34)NC(=O)[C@@H]3C[C@@H](N)CN3C(=O)CNC(=O)[C@H](Cc3ccc(C(=O)O)cc3)NC(=O)[C@H](Cc3c[nH]c4ccccc34)NC2=O)cc1 [Example 108] (cyclo([AEF](Ac)W[Phe(4-COOH)]G[Pro(4R-NH2)][1Nal(3S-Me)]D[dNMeA]G[Bip(4'-COOH)]KG[dA][hTyr])) | 0.102
2 | CC(=O)NCCOc1ccc(C[C@@H]2NC(=O)[C@H](CCc3ccc(O)cc3)NC(=O)[C@@H](C)N(C)C(=O)CNC(=O)[C@H](CCCCN)NC(=O)[C@H](Cc3ccc(-c4ccc(C(=O)O)cc4)cc3)NC(=O)CNC(=O)[C@@H](C)N(C)C(=O)[C@H](CC(=O)O)NC(=O)[C@H]([C@@H](C)c3cccc4ccccc34)NC(=O)[C@@H]3C[C@@H](N)CN3C(=O)CNC(=O)[C@H](Cc3ccc(C(=O)O)cc3)NC(=O)[C@H](Cc3c[nH]c4ccccc34)NC2=O)cc1 [Example 109] (cyclo([AEF](Ac)W[Phe(4-COOH)]G[Pro(4R-NH2)][1Nal(3S-Me)]D[dNMeA]G[Bip(4'-COOH)]KG[dNMeA][hTyr])) | 0.0775
3 | CC(=O)NCCOc1ccc(C[C@@H]2NC(=O)[C@H](CCc3ccc(C(F)(F)F)cc3)NC(=O)[C@@H](C)NC(=O)[C@H](CO)NC(=O)[C@H](CCCCN)NC(=O)[C@H](Cc3ccc(-c4ccc(C(=O)O)cc4)cc3)NC(=O)CNC(=O)[C@@H](C)N(C)C(=O)[C@H](CC(=O)O)NC(=O)[C@H]([C@@H](C)c3cccc4ccccc34)NC(=O)[C@@H]3C[C@@H](N)CN3C(=O)CNC(=O)[C@H](Cc3ccc(C(=O)O)cc3)NC(=O)[C@H](Cc3c[nH]c4ccccc34)NC2=O)cc1 [Example 111] (cyclo([AEF](Ac)W[Phe(4-COOH)]G[Pro(4R-NH2)][1Nal(3S-Me)]D[dNMeA]G[Bip(4'-COOH)]KS[dA][hPhe(4-CF3)])) | 0.133
4 | CC(=O)NCCOc1ccc(C[C@@H]2NC(=O)[C@H](CCc3cncc(C#N)c3)NC(=O)[C@@H](CCN)NC(=O)CNC(=O)[C@H](Cc3cncnc3)NC(=O)[C@H](Cc3ccc(-c4ccc(C(=O)O)cc4)cc3)NC(=O)CNC(=O)[C@@H](C)N(C)C(=O)[C@H](CC(=O)O)NC(=O)[C@H]([C@@H](C)c3cccc4ccccc34)NC(=O)[C@@H]3C[C@@H](N)CN3C(=O)CNC(=O)[C@H](Cc3ccc(C(=O)O)cc3)NC(=O)[C@H](Cc3c[nH]c4ccccc34)NC2=O)cc1 [Example 113] (cyclo([AEF](Ac)W[Phe(4-COOH)]G[Pro(4R-NH2)][1Nal(3S-Me)]D[dNMeA]G[Bip(4'-COOH)][Ala(pyrimidin-5-yl)]G[dDab][h3Pal(5-CN)])) | 0.0918
5 | CC(=O)NCCOc1ccc(C[C@@H]2NC(=O)[C@H](CCc3cncc(C#N)c3)NC(=O)[C@@H](CCN)NC(=O)CNC(=O)[C@H](Cc3c[nH]c4ncccc34)NC(=O)[C@H](Cc3ccc(-c4ccc(C(=O)O)cc4)cc3)NC(=O)CNC(=O)[C@@H](C)N(C)C(=O)[C@H](CC(=O)O)NC(=O)[C@H]([C@@H](C)c3cccc4ccccc34)NC(=O)[C@@H]3C[C@@H](N)CN3C(=O)CNC(=O)[C@H](Cc3ccc(C(=O)O)cc3)NC(=O)[C@H](Cc3c[nH]c4ccccc34)NC2=O)cc1 [Example 114] (cyclo([AEF](Ac)W[Phe(4-COOH)]G[Pro(4R-NH2)][1Nal(3S-Me)]D[dNMeA]G[Bip(4'-COOH)][Trp(7-aza)]G[dDab][h3Pal(5-CN)])) | 0.0233

Now from value to molecule:

Row | IC50 [nM] | SMILES
6 | 0.0582 | CC(=O)NCCOc1ccc(C[C@@H]2NC(=O)[C@H](CCc3ccc(O)cc3)NC(=O)C(C)(C)NC(=O)CNC(=O)[C@H](CCCCN)NC(=O)[C@H](Cc3ccc(-c4ccc(C(=O)O)cc4)cc3)NC(=O)CNC(=O)[C@@H](C)N(C)C(=O)[C@H](CC(=O)O)NC(=O)[C@H]([C@@H](C)c3cccc4ccccc34)NC(=O)[C@@H]3C[C@@H](N)CN3C(=O)CNC(=O)[C@H](Cc3ccc(C(=O)O)cc3)NC(=O)[C@H](Cc3c[nH]c4ccccc34)NC2=O)cc1 [Example 107] (cyclo([AEF](Ac)W[Phe(4-COOH)]G[Pro(4R-NH2)][1Nal(3S-Me)]D[dNMeA]G[Bip(4'-COOH)]KG[Aib][hTyr]))
7 | 0.195 | CC(=O)NCCOc1ccc(C[C@@H]2NC(=O)[C@H](CCc3ccc(O)cc3)NC(=O)[C@@H](C)NC(=O)[C@H](CC(C)C)NC(=O)[C@H](CCCCN)NC(=O)[C@H](Cc3ccc(-c4ccc(C(=O)O)cc4)cc3)NC(=O)CNC(=O)[C@@H](C)N(C)C(=O)[C@H](CC(=O)O)NC(=O)[C@H]([C@@H](C)c3cccc4ccccc34)NC(=O)[C@@H]3C[C@@H](N)CN3C(=O)CNC(=O)[C@H](Cc3ccc(C(=O)O)cc3)NC(=O)[C@H](Cc3c[nH]c4ccccc34)NC2=O)cc1 [Example 110] (cyclo([AEF](Ac)W[Phe(4-COOH)]G[Pro(4R-NH2)][1Nal(3S-Me)]D[dNMeA]G[Bip(4'-COOH)]KL[dA][hTyr]))
8 | 0.0617 | CC(=O)NCCOc1ccc(C[C@@H]2NC(=O)[C@H](CCc3ccc(O)cc3)NC(=O)[C@@H](C)NC(=O)[C@H](CO)NC(=O)[C@H](CCCCN)NC(=O)[C@H](Cc3ccc(-c4ccc(C(=O)O)cc4)cc3)NC(=O)CNC(=O)[C@@H](C)N(C)C(=O)[C@H](CC(=O)O)NC(=O)[C@H]([C@@H](C)c3cccc4ccccc34)NC(=O)[C@@H]3C[C@@H](N)CN3C(=O)CNC(=O)[C@H](Cc3ccc(C(=O)O)cc3)NC(=O)[C@H](Cc3c[nH]c4ccccc34)NC2=O)cc1 [Example 112] (cyclo([AEF](Ac)W[Phe(4-COOH)]G[Pro(4R-NH2)][1Nal(3S-Me)]D[dNMeA]G[Bip(4'-COOH)]KS[dA][hTyr]))
9 | 0.085 | CC(=O)NCCOc1ccc(C[C@@H]2NC(=O)[C@H](CCc3ccccc3)NC(=O)[C@@H](C)NC(=O)[C@H](CCN)NC(=O)[C@H](Cc3c[nH]c4ccccc34)NC(=O)[C@H](Cc3ccc(-c4ccc(C(=O)O)cc4)cc3)NC(=O)CNC(=O)[C@@H](C)N(C)C(=O)[C@H](CC(=O)O)NC(=O)[C@H]([C@@H](C)c3cccc4ccccc34)NC(=O)[C@@H]3C[C@@H](N)CN3C(=O)CNC(=O)[C@H](Cc3ccc(C(=O)O)cc3)NC(=O)[C@H](Cc3c[nH]c4ccccc34)NC2=O)cc1 [Example 115] (cyclo([AEF](Ac)W[Phe(4-COOH)]G[Pro(4R-NH2)][1Nal(3S-Me)]D[dNMeA]G[Bip(4'-COOH)]W[Dab][dA][hPhe]))
10 | 0.492 | CC(=O)NCCOc1ccc(C[C@@H]2NC(=O)[C@H](CCc3ccc(O)cc3)NC(=O)[C@@H](C)NC(=O)[C@H](CCN)NC(=O)[C@H](Cc3c[nH]c4ccccc34)NC(=O)[C@H](Cc3ccc(-c4ccc(C(=O)O)cc4)cc3)NC(=O)CNC(=O)[C@@H](C)N(C)C(=O)[C@H](CC(=O)O)NC(=O)[C@H]([C@@H](C)c3cccc4ccccc34)NC(=O)[C@@H]3C[C@@H](N)CN3C(=O)CNC(=O)[C@H](Cc3ccc(C(=O)O)cc3)NC(=O)[C@H](Cc3c[nH]c4ccccc34)NC2=O)cc1 [Example 116] (cyclo([AEF](Ac)W[Phe(4-COOH)]G[Pro(4R-NH2)][1Nal(3S-Me)]D[dNMeA]G[Bip(4'-COOH)]W[Dab][dA][hTyr]))

Same assay, conditions: inhibition of IL-1β induced IL-6 secretion in MRC5 cells; read-out: MRC5 IC50

Row | IC50 [nM] | SMILES
11 | 0.16 | CC(=O)NCCOc1ccc(C[C@@H]2NC(=O)[C@H](CCc3ccc(O)cc3)NC(=O)C(C)(C)NC(=O)[C@H](CN)NC(=O)[C@H](Cc3c[nH]c4ccccc34)NC(=O)[C@H](Cc3ccc(-c4ccc(C(=O)O)cc4)cc3)NC(=O)CNC(=O)[C@@H](C)N(C)C(=O)[C@H](CC(=O)O)NC(=O)[C@H]([C@@H](C)c3cccc4ccccc34)NC(=O)[C@@H]3C[C@@H](N)CN3C(=O)CNC(=O)[C@H](Cc3ccc(C(=O)O)cc3)NC(=O)[C@H](Cc3c[nH]c4ccccc34)NC2=O)cc1 [Example 117] (cyclo([AEF](Ac)W[Phe(4-COOH)]G[Pro(4R-NH2)][1Nal(3S-Me)]D[dNMeA]G[Bip(4'-COOH)]W[Dap][Aib][hTyr]))
12 | 0.973 | CC(=O)NCCOc1ccc(C[C@@H]2NC(=O)[C@H](C)NC(=O)[C@@H](C)NC(=O)[C@H](CN)NC(=O)[C@H](Cc3c[nH]c4ccccc34)NC(=O)[C@H](Cc3ccc(-c4ccc(C(=O)O)cc4)cc3)NC(=O)CNC(=O)[C@@H](C)N(C)C(=O)[C@H](CC(=O)O)NC(=O)[C@H]([C@@H](C)c3cccc4ccccc34)NC(=O)[C@@H]3C[C@@H](N)CN3C(=O)CNC(=O)[C@H](Cc3ccc(C(=O)O)cc3)NC(=O)[C@H](Cc3c[nH]c4ccccc34)NC2=O)cc1 [Example 118] (cyclo([AEF](Ac)W[Phe(4-COOH)]G[Pro(4R-NH2)][1Nal(3S-Me)]D[dNMeA]G[Bip(4'-COOH)]W[Dap][dA]A))
13 | 0.0602 | CC(=O)NCCOc1ccc(C[C@@H]2NC(=O)[C@H](CCc3ccc(O)cc3)NC(=O)[C@@H](C)NC(=O)[C@H](CN)NC(=O)[C@H](Cc3c[nH]c4ccccc34)NC(=O)[C@H](Cc3ccc(-c4ccc(C(=O)O)cc4)cc3)NC(=O)CNC(=O)[C@@H](C)N(C)C(=O)[C@H](CC(=O)O)NC(=O)[C@H]([C@@H](C)c3cccc4ccccc34)NC(=O)[C@@H]3C[C@@H](N)CN3C(=O)CNC(=O)[C@H](Cc3ccc(C(=O)O)cc3)NC(=O)[C@H](Cc3c[nH]c4ccccc34)NC2=O)cc1 [Example 119] (cyclo([AEF](Ac)W[Phe(4-COOH)]G[Pro(4R-NH2)][1Nal(3S-Me)]D[dNMeA]G[Bip(4'-COOH)]W[Dap][dA][hTyr]))
14 | 0.86 | CC(=O)NCCOc1ccc(C[C@@H]2NC(=O)[C@H](Cc3ccc(OCCN4CCOCC4)cc3)NC(=O)[C@@H](C)NC(=O)[C@H](CN)NC(=O)[C@H](Cc3c[nH]c4ccccc34)NC(=O)[C@H](Cc3ccc(-c4ccc(C(=O)O)cc4)cc3)NC(=O)CNC(=O)[C@@H](C)N(C)C(=O)[C@H](CC(=O)O)NC(=O)[C@H]([C@@H](C)c3cccc4ccccc34)NC(=O)[C@@H]3C[C@@H](N)CN3C(=O)CNC(=O)[C@H](Cc3ccc(C(=O)O)cc3)NC(=O)[C@H](Cc3c[nH]c4ccccc34)NC2=O)cc1 [Example 120] (cyclo([AEF](Ac)W[Phe(4-COOH)]G[Pro(4R-NH2)][1Nal(3S-Me)]D[dNMeA]G[Bip(4'-COOH)]W[Dap][dA]Y(Ethyl(2-morpholino))))
